Results: publication PMC10557146 (2023)

Test system: htel, d[AG3(TTAG3)3]; htel(K) (hybrid in K+); htel(Na) (antiparallel in Na+) (DNA, G4) AGGGTTAGGGTTAGGGTTAGGG
Assay: visible absorption titration, 380 nm, Bard fit
Conditions: pH 7, 298 K, per G-tetrad

Kb (K+ (100 mM KCl), 50 mM phosphate, hybrid htel(K), site size 1.8, 7.2 μM complex): 1.1(±0.6) × 10^7 M^-1 | Kb (K+ (100 mM KCl), phosphate buffer, hybrid htel(K), site size 1.5): 4.2(±0.5) × 10^5 M^-1 | Kb (Na+ (sodium phosphate; 100 mM NaCl in TRIR samples), phosphate buffer, antiparallel htel(Na), site size 1.1): 1.9(±0.7) × 10^5 M^-1 | Kb (Na+ (sodium phosphate; 100 mM NaCl in TRIR samples), phosphate buffer, antiparallel htel(Na), site size 1.5): 2.2(±0.3) × 10^6 M^-1
SMILES: N#Cc1cc2nc3c4cccnc4c4ncccc4c3nc2cc1C#N.[Ru+2].c1cnc2c(c1)ccc1cccnc12.c1cnc2c(c1)ccc1cccnc12
